{
  "source": "patent US9850527B2",
  "about": "“Modified stem-loop oligonucleotide mediated reverse transcription and base-spacing constrained quantitative PCR” (National University of Singapore, priority 2010, dated 2017)",
  "molecules": {"B1": {"name": "GDNF: GDNF used to stimulate U251 glioblastoma cells at 100 ng/ml (protein, UniProt P39905 78-211, looked up)", "Glial cell line-derived …": "SPDKQMAVLPRRERNRQAAAANPENSRGKGRRGQRGKNRGCVLTAIHLNVTDLGLGYETKEELIFRYCSGSCDAAETTYDKILKNLSRNRRLVSDKVGQACCRPIAFDDDLSFLDDNLVYHILRKHSAKRCGCI"}},
  "key": {"[1]": {"system": "ERK1/2 MAPK", "test": "GDNF-induced ERK1/2 MAPK signaling activation in U251 cells (Western blot, phospho ERK1/2)", "type": "cell-based, human", "conditions": "GDNF 100 ng/ml", "method": "FIG. 18. GDNF-induced signaling activation in U251 human glioblastoma cells. Control and GDNF stimulated U251 cells were lysed with 2% SDS. Total protein lysates were quantified using microBCA protein assay (Pierce, Rockford, Ill., USA). Total protein (10 μg) were separated by SDS-PAGE and probed with antibodies against phospho ERK1/2 (Cell […] Technologies, Danvers, Mass., USA). The blots were striped in Western Blot Stripping Buffer (Pierce) and re-probed with total ERK1/2 (Cell Signaling Technologies) to verify equal loading. Chemiluminescence was imaged and analyzed by ChemiDoc system (Bio-Rad). A) Time-course of ERK1/2 MAPK activation by GDNF (100 ng/ml) in U251 cells. B) GDNF-induced ERK1/2 MAPK activation was inhibited by pre-treatment of MEK inhibitor U0126 (5 μM).\nHuman glioblastoma cell lines A172 and U251 were cultured in DMEM supplemented with 10% fetal bovine serum (FBS, Sigma) and antibiotics (100 U/ml penicillin and 100 μg/ml streptomycin) in a 5% CO2 humidified incubator at 37° C. U251 cells were seeded at 200,000 cells per well in E-well plate for 24 h and incubated with FBS-free DMEM medium for 12-16 h. The cells were then stimulated with 100 ng/ml of GDNF for defined periods of time in DMEM. […] The extracted RNA samples were then quantified using spectrophotometry and the integrity examined by denaturing RNA gel electrophoresis."}, "[2]": {"system": "miRNA expression in U251 cells", "test": "GDNF-regulated miRNA expression in U251 cells quantified by hemi-nested real-time RT-PCR", "type": "cell-based, human", "method": "Human glioblastoma cell lines A172 and U251 were cultured in DMEM supplemented with 10% fetal bovine serum (FBS, Sigma) and antibiotics (100 U/ml penicillin and 100 μg/ml streptomycin) in a 5% CO2 humidified incubator at 37° C. U251 cells were seeded at 200,000 cells per well in E-well plate for 24 h and incubated with FBS-free DMEM medium for 12-16 h. The cells were then stimulated with 100 ng/ml of GDNF for defined periods of time in DMEM. For MEK inhibitor studies, the cells were pre-incubated with 5 μM U0126 (Promega, Madison, Wis., USA) for 45 min in DMEM prior to GDNF stimulations. Total RNA from untreated or GDNF treated glioblastoma cells was isolated using TRIzol reagent (Invitrogen) in the presence of 20 μg/ml linear acrylamide (Ambion) according to the manufacturer's instructions. The extracted RNA samples were then quantified using spectrophotometry and the integrity examined by denaturing RNA gel electrophoresis. […]\nReal-time PCR was performed on the CFX96 system (Bio-Rad, Hercules, Calif., USA) using SYBR GREEN™ I. Real-time PCR for precursor miRNA and U6 snRNA was performed according to previous reports (Schmittgen et al., 2004; Jiang et al., 2005). […] The threshold cycles (Ct) were calculated automatically using the CFX manager software (Bio-Rad). […]"}, "[3]": {"target": "Taq polymerase (Thermus aquaticus, UniProt P19821)", "sequence (P19821 whole entry)": "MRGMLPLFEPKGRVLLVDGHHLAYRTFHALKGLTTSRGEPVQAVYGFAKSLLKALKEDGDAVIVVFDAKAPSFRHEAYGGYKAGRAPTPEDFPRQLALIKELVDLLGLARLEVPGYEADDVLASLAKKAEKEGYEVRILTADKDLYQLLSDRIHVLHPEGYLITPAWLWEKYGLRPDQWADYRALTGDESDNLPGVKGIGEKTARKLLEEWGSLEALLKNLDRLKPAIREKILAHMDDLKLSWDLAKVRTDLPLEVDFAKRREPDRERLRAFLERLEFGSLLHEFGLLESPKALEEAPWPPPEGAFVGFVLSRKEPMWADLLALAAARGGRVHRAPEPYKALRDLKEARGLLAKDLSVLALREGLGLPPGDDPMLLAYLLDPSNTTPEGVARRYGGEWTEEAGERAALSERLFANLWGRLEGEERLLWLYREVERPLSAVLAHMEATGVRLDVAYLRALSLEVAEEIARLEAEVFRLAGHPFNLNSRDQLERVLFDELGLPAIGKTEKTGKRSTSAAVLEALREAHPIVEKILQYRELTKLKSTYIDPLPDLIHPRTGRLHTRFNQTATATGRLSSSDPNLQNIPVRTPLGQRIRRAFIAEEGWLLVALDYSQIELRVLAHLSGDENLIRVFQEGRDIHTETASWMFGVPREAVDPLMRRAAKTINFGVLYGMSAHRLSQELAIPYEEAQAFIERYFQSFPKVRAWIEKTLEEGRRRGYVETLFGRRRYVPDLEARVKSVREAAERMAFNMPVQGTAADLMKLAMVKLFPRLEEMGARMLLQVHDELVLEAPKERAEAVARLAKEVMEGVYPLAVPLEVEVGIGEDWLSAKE", "conditions": "cited from earlier work"}},
  "data": [
    {"molecule": "N#CC(=C(/N)Sc1ccccc1N)/C(C#N)=C(\\N)Sc1ccccc1N", "note": "[U0126]", "values": [
      {"measurement": "inhibition of GDNF-induced ERK1/2 MAPK activation", "setting": "[1]; U251 cells, pre-treatment with U0126 5 μM", "result": "inhibited"},
      {"measurement": "inhibition of GDNF-induced up-regulation of the 6 miRNAs", "setting": "[2]; pretreatment with U0126, 24-plex assay", "result": "effectively inhibited"}
    ]},
    {"molecule": "Nc1ccc([C@H]2C[C@H](O)[C@@H](COP(=O)(O)OP(=O)(O)OP(=O)(O)O)O2)cn1", "note": "[d*CTP, 2-amino-5-(2′-deoxy-b-D-ribofuranosyl)pyridine-5′-triphosphate]", "values": [
      {"measurement": "inhibition in PCR catalysed by Taq polymerase", "setting": "[3]", "result": "strong inhibition"}
    ]},
    {"molecule": "Cc1cc([C@H]2C[C@H](O)[C@@H](COP(=O)(O)OP(=O)(O)OP(=O)(O)O)O2)c[nH]c1=O", "note": "[d*TTP, 5-(2′-deoxy-b-D-ribofuranosyl)-3-methyl-2-pyridone-5′-triphosphate]", "values": [
      {"measurement": "inhibition in PCR catalysed by Taq polymerase", "setting": "[3]", "result": "strong inhibition"}
    ]},
    {"molecule": "B1", "values": [
      {"measurement": "activation of ERK1/2 MAPK", "setting": "[1]; U251 human glioblastoma cells, time-course", "result": "induced time-dependent activation of ERK1/2 MAPK"},
      {"measurement": "regulation of miRNA expression (miR-7, -21, -218, let-7f, -7g, -7i), fold change to non-stimulated control", "setting": "[2]; GDNF 100 ng/ml, temporal regulation", "result": "timedependent up-regulation"}
    ]}
  ]
}
